These results are taken from patent US20260125400A1, “TYK2 DEGRADERS AND USES THEREOF” (Kymera Therapeutics, Inc., priority 2023, published 2026).

This experiment concerns the target T1, TYK2 (Homo sapiens, UniProt P29597).
T1 construct: Degradation of TYK2 in cells was quantitatively measured using Meso Scale Discovery (MSD) technology; endogenous in cells; host or cells: OCI-LY10
As to the kind of experiment: TYK2 MSD degradation in OCI-LY10 cells. The format is cell-based. To be noted: TYK2 degradation in OCI-LY10 cells, 4 to 24 hours incubation; for DC50: read-out: TYK2 MSD OCI-LY10 Rel-DC50. Put shortly:
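OCI-LY10 cells were treated with 9-dose 1:3 series (top 1 to 10 μM final) for 4 to 24 hours at 37° C. Lysate TYK2 quantified by MSD sandwich immunoassay; DC50 and Dmax from four-parameter inhibitor vs. response fit.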

T1 sequence (P29597 whole entry): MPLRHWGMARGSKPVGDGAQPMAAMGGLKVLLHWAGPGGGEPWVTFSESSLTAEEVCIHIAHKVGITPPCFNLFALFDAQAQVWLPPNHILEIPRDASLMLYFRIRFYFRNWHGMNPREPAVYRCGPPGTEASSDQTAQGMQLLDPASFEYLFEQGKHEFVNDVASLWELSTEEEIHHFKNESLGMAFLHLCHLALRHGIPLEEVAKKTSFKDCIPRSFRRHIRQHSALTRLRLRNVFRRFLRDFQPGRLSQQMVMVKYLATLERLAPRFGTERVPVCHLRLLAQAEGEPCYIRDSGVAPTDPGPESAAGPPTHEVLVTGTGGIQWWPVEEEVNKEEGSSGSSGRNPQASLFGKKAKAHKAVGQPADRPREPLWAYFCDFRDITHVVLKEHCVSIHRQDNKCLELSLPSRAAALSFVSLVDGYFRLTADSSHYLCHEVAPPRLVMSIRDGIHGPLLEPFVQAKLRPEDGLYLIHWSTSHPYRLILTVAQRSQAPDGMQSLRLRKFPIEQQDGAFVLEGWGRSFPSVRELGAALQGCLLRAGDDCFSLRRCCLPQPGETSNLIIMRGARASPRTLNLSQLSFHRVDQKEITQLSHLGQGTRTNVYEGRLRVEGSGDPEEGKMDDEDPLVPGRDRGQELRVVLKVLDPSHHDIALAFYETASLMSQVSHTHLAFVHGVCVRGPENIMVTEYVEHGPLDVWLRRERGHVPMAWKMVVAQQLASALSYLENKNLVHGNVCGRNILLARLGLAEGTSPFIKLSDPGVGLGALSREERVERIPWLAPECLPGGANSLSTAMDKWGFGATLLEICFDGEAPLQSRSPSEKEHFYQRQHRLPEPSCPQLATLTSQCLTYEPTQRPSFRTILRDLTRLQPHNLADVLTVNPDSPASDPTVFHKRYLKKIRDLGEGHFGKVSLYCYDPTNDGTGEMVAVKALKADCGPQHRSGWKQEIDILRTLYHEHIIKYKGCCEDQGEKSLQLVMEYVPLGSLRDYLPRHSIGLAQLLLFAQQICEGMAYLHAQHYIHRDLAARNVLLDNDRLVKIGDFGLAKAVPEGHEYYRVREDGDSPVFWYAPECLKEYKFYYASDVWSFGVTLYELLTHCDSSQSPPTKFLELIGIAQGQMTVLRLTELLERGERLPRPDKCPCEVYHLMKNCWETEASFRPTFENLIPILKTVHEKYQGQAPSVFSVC

What is called DC50 is the concentration giving 50% degradation. For `CNc1cc(N2CCc3c(-c4ccc(CN5CCC6(CCC(N(C)c7ccc(Cl)c(N8CCC(=O)NC8=O)c7)CC6)CC5)cn4)cccc32)nn2c(C(=O)N[C@@H]3CC[C@H]3OC)cnc12` [I-1009], the “TYK2 MSD OCI-LY10 Dmax %” value was “B (B (90 to >75%))” and the DC50 is below 10 nM.
With `CNc1cc(N2CCc3c(-c4ccc(CN5CCC6(CCC(Oc7ccc(Cl)c(N8CCC(=O)NC8=O)c7)CC6)C(F)(F)C5)cn4)cccc32)nn2c(C(=O)NC3CCC3OC)cnc12` (stereo not shown) [I-1010], the “TYK2 MSD OCI-LY10 Dmax %” value is on record as “B (B (90 to >75%))” and the DC50 was below 10 nM.
`CNc1cc(N2CCc3c(-c4ccc(CN5CC6(CCN(Cc7ccc(Cl)c(N8CCC(=O)NC8=O)c7)CC6(F)F)C5)cn4)cccc32)nn2c(C(=O)NC3CCC3OC)cnc12` (stereo not shown) [I-1011]: the “TYK2 MSD OCI-LY10 Dmax %” value is on record as “B (B (90 to >75%))” and the DC50 was below 10 nM.
For `CNc1cc(N2CCc3c(-c4ncc(CN5CC6(CCN(C(=O)c7cc(N8CCC(=O)NC8=O)c(C)cn7)CC6(F)F)C5)cc4F)cccc32)nn2c(C(=O)N[C@@H]3C[C@@H]3F)cnc12` [I-1012], in that order: “A (A (>90%))” and below 1 nM.
For `CNc1cc(N2CCc3c(-c4ncc(CN5CC6(CCN(C(=O)c7cc(F)c(C)c(N8CCC(=O)NC8=O)c7)CC6(F)F)C5)cc4F)cccc32)nn2c(C(=O)N[C@@H]3C[C@@H]3F)cnc12` [I-1016], in that order: “A (A (>90%))” and below 1 nM.
In the same order, the values of `CNc1cc(N2CCc3c(-c4ccc(OC5CC6(CCN(C(=O)c7cc(C)c(Cl)c(N8CCC(=O)NC8=O)c7)CC6)C5)cn4)cccc32)nn2c(C(=O)N[C@@H]3C[C@@H]3F)cnc12` [I-1017] are “B (B (90 to >75%))” and below 10 nM.
As to `CNc1cc(N2CCc3c(-c4ncc(CN5CC6(CCN(C(=O)c7ccc(C)c(N8CCC(=O)NC8=O)c7)CC6(F)F)C5)cc4F)cccc32)nn2c(C(=O)N[C@@H]3C[C@@H]3F)cnc12` [I-1018], the “TYK2 MSD OCI-LY10 Dmax %” value is “A (A (>90%))” and the DC50 is below 1 nM.
Turning to `CNc1cc(N2CCc3c(-c4ncc(CN5CC6(CCN(C(=O)c7ccc(OC)c(N8CCC(=O)NC8=O)c7)CC6(F)F)C5)cc4F)cccc32)nn2c(C(=O)N[C@@H]3C[C@@H]3F)cnc12` [I-1019], the “TYK2 MSD OCI-LY10 Dmax %” value is listed as “A (A (>90%))” and the DC50 was below 1 nM.
For `CNc1cc(N2CCc3c(CN4CCC(N5CCC6(CCN(C(=O)c7cc(N8CCC(=O)NC8=O)c(C)cn7)CC6)CC5)C(F)(F)C4)cccc32)nn2c(C(=O)N[C@@H]3C[C@@H]3F)cnc12` (stereo partly shown) [I-1022], the “TYK2 MSD OCI-LY10 Dmax %” value is “B (B (90 to >75%))” and the half-maximal degradation concentration (DC50) is below 1 nM.
For `CNc1cc(N2CCc3c(-c4ncc(CN5CC6(CCN(C(=O)c7ccc(Cl)c(N8CCC(=O)NC8=O)c7)CC6(F)F)C5)cc4F)cccc32)nn2c(C(=O)N[C@@H]3C[C@@H]3F)cnc12` [I-1023], in that order: “A (A (>90%))” and below 1 nM.
For `CNc1cc(N2CCc3c(-c4ncc(CN5CC6(CCN(C(=O)c7cc(Cl)c(C)c(N8CCC(=O)NC8=O)c7)CC6(F)F)C5)cc4F)cc(F)cc32)nn2c(C(=O)NC3CCC3OC)cnc12` (stereo not shown) [I-1038], in that order: “A (A (>90%))” and below 1 nM.
For `CNc1cc(N2CCc3c(CN4CCC(N5CCC(C6CCN(C(=O)c7cc(C)c(Cl)c(N8CCC(=O)NC8=O)c7)CC6)CC5)C(F)(F)C4)cccc32)nn2c(C(=O)N[C@@H]3CC[C@H]3OC)cnc12` (stereo partly shown) [I-1066], in that order: “A (A (>90%))” and below 1 nM.
Turning to `CNc1cc(N2CCc3c(CN4CCC(N5CC6(CCN(C(=O)c7cc(Cl)c(C)c(N8CCC(=O)NC8=O)c7)CC6)C5)C(F)(F)C4)cccc32)nn2c(C(=O)N[C@@H]3CC[C@H]3OC)cnc12` (stereo partly shown) [I-1068], the “TYK2 MSD OCI-LY10 Dmax %” value is listed as “A (A (>90%))” and the DC50 was below 1 nM.
In the case of `CNc1cc(N2CCc3c(CN4CCC(N5CCC(C6CCN(C(=O)c7ccc(Cl)c(N8CCC(=O)NC8=O)c7)CC6)CC5)C(F)(F)C4)cccc32)nn2c(C(=O)N[C@@H]3CC[C@H]3OC)cnc12` (stereo partly shown) [I-1069], the “TYK2 MSD OCI-LY10 Dmax %” value is on record as “A (A (>90%))” and the DC50 was below 1 nM.
Turning to `CNc1cc(N2CCc3c(-c4ccc(CN5CC6(CCN(C(=O)c7cc(C)c(Cl)c(N8CCC(=O)NC8=O)c7)CC6(F)F)C5)cn4)cccc32)nn2c(C(=O)NC(C)c3ncco3)cnc12` (stereo not shown) [I-1072], the “TYK2 MSD OCI-LY10 Dmax %” value was “B (B (90 to >75%))” and the 50% degradation concentration (DC50) is below 10 nM.
In the same order, the values of `CNc1cc(N2CCc3c(CN4CCC(N5CC6(CCN(C(=O)c7cc(C)c(Cl)c(N8CCC(=O)NC8=O)c7)CC6)C5)C(F)(F)C4)cccc32)nn2c(C(=O)N[C@@H]3CC[C@H]3OC)cnc12` (stereo partly shown) [I-1073] are “A (A (>90%))” and below 1 nM.
As usually defined, the Dmax is the greatest extent of degradation seen. A higher Dmax goes with deep degradation. Turning to `CNc1cc(N2CCc3c(CN4CCC(CN5CCC6(CC5)CCN(C(=O)c5ccc(Cl)c(N7CCC(=O)NC7=O)c5)CC6)C(F)(F)C4)cccc32)nn2c(C(=O)N[C@@H]3CC[C@H]3OC)cnc12` (stereo partly drawn) [I-1074, 6-(4-{[4-({9-[14-chloro-3-(2,4-dioxo-1,3-diazinan-1-yl)benzoyl]-3,9-diazaspiro[5.5]undecan-3-yl}methyl)-3,3-difluoropiperidin-1-yl]methyl}-2,3-dihydroindol-1-yl)-N-[(1R,2R)-2-methoxycyclobutyl]-8-(methylamino)imidazo[1,2-b]pyridazine-3-carboxamide], the Dmax was above 90% and the DC50 was below 1 nM.
As for `CNc1cc(N2CCc3c(-c4ccc(CN5CC6(CCN(C(=O)c7cc(C)c(Cl)c(N8CCC(=O)NC8=O)c7)CC6(F)F)C5)cn4)cccc32)nn2c(C(=O)NCc3ncco3)cnc12` [I-1077], the “TYK2 MSD OCI-LY10 Dmax %” value is recorded as “B (B (90 to >75%))” and the DC50 is below 1 nM.
For the molecule `CNc1cc(N2CCc3c(CN4CCC(N5CCC6(CCN(C(=O)c7cc(F)c(Cl)c(N8CCC(=O)NC8=O)c7)CC6)CC5)C(F)(F)C4)cccc32)nn2c(C(=O)NC3CCC3OC)cnc12` (stereo not shown) [I-1078], the “TYK2 MSD OCI-LY10 Dmax %” value is listed as “A (A (>90%))” and the DC50 was below 1 nM.
Consider `CNc1cc(N2CCc3c(CN4CCC(N5CCC6(CCN(C(=O)c7cc(F)c(C)c(N8CCC(=O)NC8=O)c7)CC6)CC5)C(F)(F)C4)cccc32)nn2c(C(=O)N[C@@H]3CC[C@H]3OC)cnc12` (stereo partly shown) [I-1081], for which the “TYK2 MSD OCI-LY10 Dmax %” value is listed as “A (A (>90%))” and the DC50 is below 1 nM.
In the same order, the values of `CNc1cc(N2CCc3c(-c4ccc(CN5CCC6(CCN(C(=O)c7ccc(Cl)c(N8CCC(=O)NC8=O)c7)C6)C(F)(F)C5)cn4)cccc32)nn2c(C(=O)N[C@@H]3C[C@@H]3F)cnc12` (stereo partly shown) [I-1082] are “B (B (90 to >75%))” and below 1 nM.
Turning to `CNc1cc(N2CCc3c(CN4CCC(N5CCC6(CCN(C(=O)c7cc(N8CCC(=O)NC8=O)c(Cl)cc7F)CC6)CC5)C(F)(F)C4)cccc32)nn2c(C(=O)N[C@@H]3CC[C@H]3OC)cnc12` (stereo partly shown) [I-1084], the “TYK2 MSD OCI-LY10 Dmax %” value was “A (A (>90%))” and the DC50 is below 1 nM.
In the same order, the values of `CNc1cc(N2CCc3c(-c4ccc(CN5CCC6(CCN(C(=O)c7ccc(Cl)c(N8CCC(=O)NC8=O)c7)CC6)C(F)(F)C5)cn4)cccc32)nn2c(C(=O)N[C@H]3CC[C@@H]3C(F)(F)F)cnc12` [I-1103] are “D (D (<50%))” and 10 to 100 nM.
`CNc1cc(N2CCc3c(-c4ccc(CC5CC6(CCN(C(=O)c7cc(F)c(Cl)c(N8CCC(=O)NC8=O)c7)CC6)C5)cn4)cccc32)nn2c(C(=O)N[C@@H]3CC[C@H]3OC)cnc12` [I-1104]: the “TYK2 MSD OCI-LY10 Dmax %” value is listed as “A (A (>90%))” and the DC50 was below 10 nM.
For `CNc1cc(N2CCc3c(-c4ncc(CN5CCC6(CCN(C(=O)c7cc(C)c(Cl)c(N8CCC(=O)NC8=O)c7)CC6)C(F)(F)C5)cc4F)cccc32)nn2c(C(=O)N[C@@H]3CC[C@H]3OC)cnc12` [I-1106], in that order: “A (A (>90%))” and below 10 nM.
In the same order, the values of `CNc1cc(N2CCc3c(-c4ccc(CC5CCC6(CC5)CCN(C(=O)c5cc(C)c(Cl)c(N7CCC(=O)NC7=O)c5)CC6)cn4)cccc32)nn2c(C(=O)N[C@@H]3CC[C@H]3OC)cnc12` [I-1107] are “A (A (>90%))” and below 10 nM.
Turning to `CNc1cc(N2CCc3c(-c4ccc(CN5CCC6(CCN(C(=O)c7ccc(Cl)c(N8CCC(=O)NC8=O)c7)CC6)C(F)(F)C5)cn4)cccc32)nn2c(C(=O)N[C@@H]3CC[C@H]3C(F)(F)F)cnc12` [I-1108], the “TYK2 MSD OCI-LY10 Dmax %” value is recorded as “D (D (<50%))” and the DC50 is above 100 nM.
For `CNc1cc(N2CCc3c(CN4CCC(N5CCC6(CCN(C(=O)c7cc(C)c(Cl)c(N8CCC(=O)NC8=O)c7)CC6)CC5)C(F)(F)C4)cc(F)cc32)nn2c(C(=O)N[C@@H]3CC[C@H]3OC)cnc12` (stereo partly shown) [I-1114], in that order: “A (A (>90%))” and below 1 nM.
Regarding `CNc1cc(N2CCc3c(CN4CCC(N5CCC6(CCN(C(=O)c7cc(C)c(Cl)c(N8CCC(=O)NC8=O)c7)CC6)CC5)C(F)(F)C4)cc(Cl)cc32)nn2c(C(=O)N[C@@H]3CC[C@H]3OC)cnc12` (stereo partly shown) [I-1116], the “TYK2 MSD OCI-LY10 Dmax %” value is “B (B (90 to >75%))” and the DC50 was below 10 nM.
In the same order, the values of `CNc1cc(N2CCc3c(-c4ccc(CN5CC6(CCN(C(=O)c7cc(C)c(Cl)c(N8CCC(=O)NC8=O)c7)CC6(F)F)C5)cn4)cccc32)nn2c(C(=O)N[C@H]3CCC[C@@H]3OC)cnc12` [I-1117] are “D (D (<50%))” and above 100 nM.
For `CNc1cc(N2CCc3c(-c4ccc(CN5CCC6(CCN(C(=O)c7ccc(Cl)c(N8CCC(=O)NC8=O)c7)CC6)C(F)(F)C5)cn4)cccc32)nn2c(C(=O)NC3CC(C(F)(F)F)C3)cnc12` (stereo not shown) [I-1118], in that order: “C (C (75 to 50%))” and 10 to 100 nM.
For `CNc1cc(N2CCc3c(-c4ccc(CC5(F)CC6(CCN(C(=O)c7cc(N8CCC(=O)NC8=O)c(C)cc7F)CC6)C5)cn4)cccc32)nn2c(C(=O)N[C@@H]3CC[C@H]3OC)cnc12` [I-1121], in that order: “A (A (>90%))” and below 1 nM.
